# Test results: paper PMC7799360, “Reprogramming immunosuppressive myeloid cells facilitates immunotherapy for colorectal cancer” (EMBO Molecular Medicine, 2020)
# What was measured:
# 4T1 = experiment: Cell viability (MTS); type: cell-based, mouse; conditions: 4T1, 100 µM
# Source text: (§1) The murine colon cancer (CT26), murine breast cancer (4T1), and human colon cancer (HCT116, HCT8, HT29, and DLD1) cell lines were obtained from American Type Culture Collection (ATCC). The murine cell lines of melanoma (B16F10), pancreatic cancer (Pan02), and colon cancer (MC38), Chinese hamster ovary (CHO) cell line, and human embryonic kidney cell lines (HEK293 and HEK293T) were purchased from the National Infrastructure of Cell Line Resource (Shanghai, China). Primary human endothelial cells (HUVECs) were kindly provided by Dr. Xinli Wang (Baylor College of Medicine, Houston, TX, USA) and cultured in endothelial cell medium (ScienCell, San Diego, CA, USA) according to the manufacturer’s instructions. The CHO‐Gα16 cell line was established in our previous study and maintained in DMEM/F12 medium containing puromycin (4 μg/ml) (Wu et al., 2018). Cell lines were maintained in vendor recommended growth medium supplemented with 10% FBS (Gibco, Waltham, MA, USA) and 1% penicillin/streptomycin solution (Gibco) at 37°C ins a humidified atmosphere (5% CO2). All cell lines were authenticated using short tandem repeat analysis. All cell lines were confirmed to be mycoplasma‐free by polymerase chain reaction (PCR) analysis. Cell viability was determined using CellTiter 96 ® Aqueous One Solution (Promega, Madison, WI).
# (§2) Appendix Figure S1. […]. The cytotoxicity curves
# (§3) . Mouse cancer cells: CT26
# (§4) . Human colon cancer cells: HCT116 (E),
# (§5) HCT8 (F), HT29 (G) and DLD1 (H). Human normal cell line: HUVECs (I). Cell
# (§6) viability was measured by MTS. Data are presented as mean ± SEM derived
# (§7) from three independent experiments (n=3).
# (§8) (1 picture or pasted object on this page, not shown here)
# Panc02 = experiment: Cell viability (MTS); type: cell-based, mouse; conditions: Panc02, 100 µM
# Source text: as §1, §2, §3, §4, §5, §6, §7, §8
# MC38 = experiment: Cell viability (MTS); type: cell-based, mouse; conditions: MC38, 100 µM
# Source text: as §1, §2, §3, §4, §5, §6, §7, §8
# CT26 = experiment: Cell viability (MTS); type: cell-based, mouse; conditions: CT26, 100 µM
# Source text: as §1, §2, §3, §4, §5, §6, §7, §8
# human EP2 = target: T1, human EP2 (Homo sapiens, UniProt P43116); experiment: PGE2-induced calcium flux assay in CHO-Gα16 cells; type: cell-based
# T1 construct: host or cells: CHO-Gα16
# AVPR1A = target: T2, AVPR1A (Homo sapiens, UniProt P37288); experiment: GPCR calcium flux assay; type: cell-based
# T2 construct: Pharmaron (Beijing, China), contract laboratory
# HTR2B = target: T3, HTR2B (Homo sapiens, UniProt P41595); experiment: GPCR calcium flux assay; type: cell-based
# T3 construct: Pharmaron (Beijing, China), contract laboratory
# OPRM1 = target: T4, OPRM1 (Homo sapiens, UniProt P35372); experiment: GPCR calcium flux assay; type: cell-based
# T4 construct: Pharmaron (Beijing, China), contract laboratory
# [1] = 14-day repeat-dose toxicity study in Sprague Dawley rats; type: in vivo; conditions: for Nasal cavity: Normal: animals normal/examined
# Procedure: (three males and three females). […]
# orally administrated once daily for 14 days. Abnormal behaviors and mortality
# were observed every day and b ody weight was recorded every three days.
# Animals were sacrificed on day 15, and blood parameters and organ
# morphology were recorded. […]
# mouse bone marrow cells = experiment: GM-CSF/IL-6-induced bone marrow MDSC differentiation assay; type: cell-based; conditions: GM-CSF/IL-6/PGE2, 0.1-10 μM TP-16, 6 days
# Procedure: Single‐cell suspensions of mouse BM cells were prepared by filtering femurs and tibias of 6‐week‐old female BALB/c mice through 40‐μm cell strainers (Falcon). These suspensions were treated with red blood cell lysis buffer and replated in conditioned medium. Monocyte differentiation, MDSC induction, and macrophage polarization were analyzed by FACS analysis (BD Biosciences) with FlowJo software.
# For the MDSC induction assay, purified BM cells were cultured in RPMI1640 medium stimulated with recombinant mouse GM‐CSF (40 ng/ml, Peprotech) and IL‐6 (40 ng/ml, Peprotech) for 6 days to generate bone marrow‐derived MDSCs (Svoronos et al., 2017); the medium was refreshed every 3 days. Vehicle or PGE2 (10 nM) ± TP‐16 was added simultaneously on day 0 for FACS analysis of BM‐derived MDSCs. For quantitative PCR (qPCR) analysis of MDSCs, differentiated MDSCs were treated with vehicle or PGE2 (10 nM) ± TP‐16 for 12 h.
# human EP1 = target: T5, human EP1 (Homo sapiens, UniProt P34995); experiment: PGE2-induced calcium flux assay in CHO-Gα16 cells; type: cell-based
# T5 construct: host or cells: CHO-Gα16
# [2] = female, Sprague-Dawley, rat, in vivo, 100 mg/kg/day, 14 days
# [3] = male, Sprague-Dawley, rat, in vivo, 100 mg/kg/day, 14 days
# T2 sequence (P37288 whole entry, species assumed): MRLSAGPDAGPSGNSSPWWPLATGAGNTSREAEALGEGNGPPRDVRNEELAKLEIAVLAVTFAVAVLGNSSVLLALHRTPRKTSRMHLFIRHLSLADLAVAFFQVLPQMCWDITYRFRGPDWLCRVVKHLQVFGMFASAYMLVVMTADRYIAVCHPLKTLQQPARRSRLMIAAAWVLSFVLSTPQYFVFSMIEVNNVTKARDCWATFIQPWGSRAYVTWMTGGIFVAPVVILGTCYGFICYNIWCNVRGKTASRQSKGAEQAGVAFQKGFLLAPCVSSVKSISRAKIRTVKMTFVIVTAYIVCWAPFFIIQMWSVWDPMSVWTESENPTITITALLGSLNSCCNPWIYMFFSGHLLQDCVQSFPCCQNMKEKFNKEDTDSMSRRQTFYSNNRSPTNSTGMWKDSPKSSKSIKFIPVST
# T3 sequence (P41595 whole entry, species assumed): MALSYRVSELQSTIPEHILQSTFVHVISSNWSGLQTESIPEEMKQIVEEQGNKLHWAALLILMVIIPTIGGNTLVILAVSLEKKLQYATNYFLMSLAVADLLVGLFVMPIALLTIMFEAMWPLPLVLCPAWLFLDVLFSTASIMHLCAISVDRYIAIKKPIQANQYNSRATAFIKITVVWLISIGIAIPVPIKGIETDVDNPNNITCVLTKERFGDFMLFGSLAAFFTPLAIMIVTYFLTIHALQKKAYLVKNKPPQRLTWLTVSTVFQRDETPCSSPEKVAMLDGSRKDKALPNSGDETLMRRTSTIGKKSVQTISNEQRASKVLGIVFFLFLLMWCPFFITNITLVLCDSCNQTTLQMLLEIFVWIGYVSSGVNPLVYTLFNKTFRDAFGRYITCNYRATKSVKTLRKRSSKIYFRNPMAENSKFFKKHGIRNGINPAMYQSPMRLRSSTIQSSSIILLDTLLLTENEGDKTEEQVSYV
# T1 sequence (P43116 whole entry): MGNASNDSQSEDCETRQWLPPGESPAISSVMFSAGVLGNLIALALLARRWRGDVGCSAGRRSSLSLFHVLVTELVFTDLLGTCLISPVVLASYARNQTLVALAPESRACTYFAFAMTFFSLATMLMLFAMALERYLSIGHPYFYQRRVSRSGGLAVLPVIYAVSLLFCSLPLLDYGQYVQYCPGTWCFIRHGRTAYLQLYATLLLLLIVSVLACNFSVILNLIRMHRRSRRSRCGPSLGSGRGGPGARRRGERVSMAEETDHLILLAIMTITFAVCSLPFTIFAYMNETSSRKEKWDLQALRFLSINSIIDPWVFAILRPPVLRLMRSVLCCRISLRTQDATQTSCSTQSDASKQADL
# T5 sequence (P34995 whole entry): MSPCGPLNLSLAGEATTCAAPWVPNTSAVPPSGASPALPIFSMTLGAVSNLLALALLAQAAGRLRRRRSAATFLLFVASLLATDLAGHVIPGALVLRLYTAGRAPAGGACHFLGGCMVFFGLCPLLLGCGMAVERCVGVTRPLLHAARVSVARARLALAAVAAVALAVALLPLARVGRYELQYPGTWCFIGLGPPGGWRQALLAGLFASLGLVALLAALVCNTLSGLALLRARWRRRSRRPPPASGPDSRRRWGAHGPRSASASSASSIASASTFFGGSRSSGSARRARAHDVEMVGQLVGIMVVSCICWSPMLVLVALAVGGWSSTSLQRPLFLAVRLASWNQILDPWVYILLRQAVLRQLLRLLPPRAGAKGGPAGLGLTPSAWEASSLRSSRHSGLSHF
# T4 sequence (P35372 whole entry, species assumed): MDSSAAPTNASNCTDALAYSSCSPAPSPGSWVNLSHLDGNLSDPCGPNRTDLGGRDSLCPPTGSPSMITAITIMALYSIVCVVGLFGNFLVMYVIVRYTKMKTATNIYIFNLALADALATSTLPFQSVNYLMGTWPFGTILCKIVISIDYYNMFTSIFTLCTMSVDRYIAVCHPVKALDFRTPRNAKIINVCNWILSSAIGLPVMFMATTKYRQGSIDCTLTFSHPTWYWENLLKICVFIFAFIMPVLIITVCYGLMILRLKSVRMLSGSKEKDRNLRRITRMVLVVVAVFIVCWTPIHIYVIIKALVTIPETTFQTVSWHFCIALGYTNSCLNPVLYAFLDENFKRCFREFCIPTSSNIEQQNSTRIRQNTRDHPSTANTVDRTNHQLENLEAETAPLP
smiles,measurement,setting,value
C[C@H](NC(=O)c1c(Cc2ccc(F)cc2)sc2c1CCOC2)c1ccc(C(=O)O)cc1 [TP-16],effect on cell viability,4T1,did not affect the viability
same,effect on cell viability,Panc02,did not affect the viability
same,effect on cell viability,MC38,did not affect the viability
same,effect on cell viability,CT26,did not affect the viability
same,IC50,human EP2,> 10 µM
same,IC50,AVPR1A,> 10 µM
same,IC50,HTR2B,> 10 µM
same,IC50,OPRM1,> 10 µM
same,Nasal cavity: Normal,"[1]; female rats, 100 mg/kg/day, 14 days",3/3
same,Brain: Normal,[1]; [2],3/3
same,Cervical lymph node: Normal,[1]; [2],3/3
same,Colon: Normal,[1]; [2],3/3
same,Duodenum: Normal,[1]; [2],3/3
same,Esophagus: Normal,[1]; [2],3/3
same,Eye: Normal,[1]; [2],3/3
same,Femur/Bone marrow: Normal,[1]; [2],3/3
same,Harderian gland: Normal,[1]; [2],3/3
same,Heart: Normal,[1]; [2],3/3
same,Ileum: Normal,[1]; [2],3/3
same,Jejunum: Normal,[1]; [2],3/3
same,Kidney: Normal,[1]; [2],3/3
same,Liver: Normal,[1]; [2],3/3
same,Lung: Normal,[1]; [2],3/3
same,Mesenteric lymph node: Normal,[1]; [2],3/3
same,Ovary: Normal,[1]; [2],3/3
same,Pancreas: Normal,[1]; [2],3/3
same,Parathyroid gland: Normal,[1]; [2],3/3
same,Pituitary gland: Normal,[1]; [2],3/3
same,Preputial/Clitoral gland: Normal,[1]; [2],3/3
same,Rectum: Normal,[1]; [2],3/3
same,Salivary gland: Normal,[1]; [2],3/3
same,Skin/ Mammary gland: Normal,[1]; [2],3/3
same,Spleen: Normal,[1]; [2],3/3
same,Stomach: Normal,[1]; [2],3/3
same,Testis: Normal,[1]; [2],3/3
same,Thymus: Normal,[1]; [2],3/3
same,Thyroid gland: Normal,[1]; [2],3/3
same,Trachea: Normal,[1]; [2],3/3
same,Urinary bladder: Normal,[1]; [2],3/3
same,Uterus: Normal,[1]; [2],3/3
same,Vagina: Normal,[1]; [2],3/3
same,Nasal cavity: Normal,"[1]; male rats, 100 mg/kg/day, 14 days",3/3
same,Brain: Normal,[1]; [3],3/3
same,Cervical lymph node: Normal,[1]; [3],3/3
same,Colon: Normal,[1]; [3],3/3
same,Duodenum: Normal,[1]; [3],3/3
same,Epididymis: Normal,[1]; [3],3/3
same,Esophagus: Normal,[1]; [3],3/3
same,Eye: Normal,[1]; [3],3/3
same,Femur/Bone marrow: Normal,[1]; [3],3/3
same,Harderian gland: Normal,[1]; [3],3/3
same,Heart: Normal,[1]; [3],3/3
same,Ileum: Normal,[1]; [3],3/3
same,Jejunum: Normal,[1]; [3],3/3
same,Kidney: Normal,[1]; [3],3/3
same,Liver: Normal,[1]; [3],3/3
same,Lung: Normal,[1]; [3],3/3
same,Mesenteric lymph node: Normal,[1]; [3],3/3
same,Pancreas: Normal,[1]; [3],3/3
same,Parathyroid gland: Normal,[1]; [3],3/3
same,Pituitary gland: Normal,[1]; [3],3/3
same,Preputial/Clitoral gland: Normal,[1]; [3],3/3
same,Prostate: Normal,[1]; [3],3/3
same,Rectum: Normal,[1]; [3],3/3
same,Salivary gland: Normal,[1]; [3],3/3
same,Seminal vesicle: Normal,[1]; [3],3/3
same,Skin/ Mammary gland: Normal,[1]; [3],3/3
same,Spleen: Normal,[1]; [3],3/3
same,Stomach: Normal,[1]; [3],3/3
same,Testis: Normal,[1]; [3],3/3
same,Thymus: Normal,[1]; [3],3/3
same,Thyroid gland: Normal,[1]; [3],3/3
same,Trachea: Normal,[1]; [3],3/3
same,Urinary bladder: Normal,[1]; [3],3/3
same,body weight during 14-day treatment,"[1]; rat, in vivo, po, 100 mg/kg",without statistically significant weight loss
same,"hematological analysis, overall finding","[1]; rat, in vivo, po, 100 mg/kg",no adverse changes
same,"organ morphology, overall finding","[1]; rat, in vivo, po, 100 mg/kg",no abnormalities
same,PGE2-dependent expansion of both mMDSCs and PMN-MDSCs,mouse bone marrow cells,significantly inhibited
same,IC50,human EP1,> 10 µM
